Source: patent US6294555A, “1-[(1-Substituted-4-piperidinyl)methyl]-4-piperidine derivative, process for producing the same, medicinal compositions containing the same and intermediates of these compounds” (Dainippon Pharmaceutical Co., Ltd., priority 1998, dated 2001)

Legend:
[1] = target: T1, Serotonin 4 (5-HT4) Receptors (Cavia porcellus, UniProt O70528); experiment: Binding Assay on Serotonin 4 (5-HT4) Receptors ([3H]-GR113808, striatum membrane fractions); parameters: species or system guinea pig (Std-Hartley); details: 50% inhibition of specific binding of 0.1 nM [3H]-GR113808; 37° C., 30 min; test compounds are fumarates except numbers marked ** (62, 72, 74: free bases)
T1 construct: the striatum was dissected; from tissue; host or cells: guinea pig (Std-Hartley) brain striatum, membrane fractions
Experimental: Std-Hartley guinea pigs weighing 300-400 g were decapitated, and the brain thereof was immediately taken out, and the striatum was dissected. To the tissue thus obtained was added 15-times volume of Hepes buffer (50 mM, pH7.4, 4° C.), homogenized in a Teflon homogenizer, and centrifuged at 48,000×g at 4° C. for 15 minutes. The pellet was suspended in the same Hepes buffer in a volume of 1 ml per 30 mg of the wet tissues to give receptor membrane fractions.
The reaction was terminated by rapid vacuum filtration and washing (3×4 ml) with ice-cold 50 mM Tris-HCl buffer (pH 7.7) through Whatman GF/B filter paper using a Brandel cell harvester. Prior to the filtration, the filter to be used was presoaked in a 0.1% solution of polyethylenimine for one hour. The radioactivity on the filter was determined with by ACS-II scintillation cocktail by a liquid scintillation counter.

[2] = tested on: Mice of Std-ddY strain (evacuation); experiment: Assay on Evacuation in Mice (fecal pellets, oral); type: in vivo, mouse (Std-ddY, male); parameters: key: -: Inactive; +: Moderately stimulated (P<0.05); ++: Markedly stimulated (p<0.01); details: 1 mg/kg oral; fecal pellets at 30, 60 and 120 minutes; Dunnett's test; fumarates except numbers marked ** (25, 86: free bases)
Experimental: Male mice of Std-ddY strain weighing 25-30 g were used. Free access to food and water was allowed up to the beginning of the procedure.
The mice (each group: five mice) were placed in a mesh bottom cage for fasting, and they were allowed for acclimation to new environment for about one hour prior to the start of the experiment. A test compound, which was previously suspended in the 0.5% tragacanth solution, was administered orally to the mice at a dose of 1 mg/kg. The fecal pellets were counted and collected at 30, 60 and 120 minutes after the treatment of a test compound, and weighed.
The statistical judgment of efficacy was carried out between the control group and the treated group, and determined by Dunnett's test.

T1 sequence (O70528 whole entry): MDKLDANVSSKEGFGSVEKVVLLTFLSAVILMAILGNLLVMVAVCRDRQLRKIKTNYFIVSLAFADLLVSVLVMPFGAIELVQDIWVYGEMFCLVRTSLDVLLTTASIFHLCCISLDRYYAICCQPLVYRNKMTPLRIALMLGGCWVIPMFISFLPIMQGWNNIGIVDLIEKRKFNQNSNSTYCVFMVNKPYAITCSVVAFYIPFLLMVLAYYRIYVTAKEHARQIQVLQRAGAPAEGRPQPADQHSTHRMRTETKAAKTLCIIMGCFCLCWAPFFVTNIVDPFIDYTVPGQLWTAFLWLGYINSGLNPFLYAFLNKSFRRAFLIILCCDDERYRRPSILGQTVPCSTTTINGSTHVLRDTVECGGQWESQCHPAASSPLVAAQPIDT

Question: With `CCN(CC)C(=O)N1CCC(CN2CCC(NC(=O)c3cc(Cl)c(N)cc3OC)CC2)CC1` [Example 2] as the compound, how does the IC50 [1] read?
Answer: The IC50 was 11.9 nM.

Question: And the “Effect (evacuation)” value [2]?
Answer: Its value is “+”.

Question: How did the IC50 [1] turn out when `COc1cc(N)c(Cl)cc1C(=O)NC1CCN(CC2CCN(C(=O)N(C(C)C)C(C)C)CC2)CC1` [Example 3] was run?
Answer: Its IC50 is 15.5 nM.

Question: How did the IC50 [1] turn out when `CCN(C)C(=O)N1CCC(CN2CCC(NC(=O)c3cc(Cl)c(N)cc3OC)CC2)CC1` [Example 4, 4-amino-5-chloro-N-[1-[1-(N-ethyl-N-methylcarbamoyl)-4-piperidinylmethyl]-4-piperidinyl]-2-methoxybenzamide] was run?
Answer: Its IC50 is 11.9 nM.

Question: And the “Effect (evacuation)” value [2]?
Answer: Its value is “++”.

Question: How did the IC50 [1] turn out when `CCCN(C)C(=O)N1CCC(CN2CCC(NC(=O)c3cc(Cl)c(N)cc3OC)CC2)CC1` [Example 5] was run?
Answer: Its IC50 is 7.6 nM.

Question: With `COc1cc(N)c(Cl)cc1C(=O)NC1CCN(CC2CCN(C(=O)N(C)c3ccccc3)CC2)CC1` [Example 8, 4-amino-5-chloro-2-methoxy-N-[1-[1-(N-methyl-N-phenylcarbamoyl)-4-piperidinylmethyl]-4-piperidinyl]benzamide] as the compound, how does the IC50 [1] read?
Answer: Its IC50 is 6.3 nM.

Question: And the “Effect (evacuation)” value [2]?
Answer: Its value is “++”.

Question: `CCN(CC)C(=S)N1CCC(CN2CCC(NC(=O)c3cc(Cl)c(N)cc3OC)CC2)CC1` [Example 11] was tested. Which IC50 [1] did it give?
Answer: Its IC50 is 6.8 nM.

Question: `COc1cc(N)c(Cl)cc1C(=O)NC1CCN(CC2CCN(C(=O)N3CCOCC3)CC2)CC1` [Example 13] was tested. Which IC50 [1] did it give?
Answer: The IC50 was 19.1 nM.

Question: Which IC50 [1] does the source give for `COc1cc(N)c(Cl)cc1C(=O)NC1CCN(CC2CCN(S(=O)(=O)N(C)C)CC2)CC1` [Example 16] here?
Answer: Its IC50 is 14.2 nM.

Question: Which results are given for `CCN(CC)C(=O)N1CCC(CN2CCC(NC(=O)c3cc(Cl)c(N)c4c3OCC4)CC2)CC1` [Example 19, 4-amino-5-chloro-N-[1-(1-diethylcarbamoyl-4-piperidinylmethyl)-4-piperidinyl]-2,3-dihydrobenzo[b]furan-7-carboxamide]?
Answer: IC50 [1]: 2.7 nM; Effect (evacuation) [2]: ++

Question: For `CCOc1cc(N)c(Cl)cc1C(=O)NC1CCN(CC2CCN(C(=O)N(CC)CC)CC2)CC1` [Example 27, 4-amino-5-chloro-N-[1-(1-diethylcarbamoyl-4-piperidinylmethyl)-4-piperidinyl]-2-ethoxybenzamide], which IC50 [1] is on record?
Answer: Its IC50 is 4.4 nM.

Question: And the “Effect (evacuation)” value [2]?
Answer: Its value is “++”.

Question: How did the IC50 [1] turn out when `CCOc1cc(N)c(Cl)cc1C(=O)NC1CCN(CC2CCN(C(=S)N(C)C)CC2)CC1` [Example 33, 4-Amino-5-chloro-N-[1-(1-dimethylthiocarbamoyl-4-piperidinylmethyl)-4-piperidinyl]-2-ethoxybenzamide] was run?
Answer: The IC50 was 2.3 nM.

Question: Which IC50 [1] does the source give for `COc1cc(N)c(Cl)cc1C(=O)NC1CCN(CC2CCN(C(=O)Nc3ccc(Cl)cc3)CC2)CC1` [Example 38] here?
Answer: The IC50 was 1.6 nM.

Question: Which IC50 [1] does the source give for `COc1ccc(NC(=O)N2CCC(CN3CCC(NC(=O)c4cc(Cl)c(N)cc4OC)CC3)CC2)cc1` [Example 39] here?
Answer: The IC50 was 2.3 nM.

Question: How did the IC50 [1] turn out when `COc1cc(N)c(Cl)cc1C(=O)NC1CCN(CC2CCN(C(=O)Nc3ccc(C)cc3)CC2)CC1` [Example 40] was run?
Answer: Its IC50 is 1.7 nM.

Question: For `CCCNC(=O)N1CCC(CN2CCC(NC(=O)c3cc(Cl)c(N)cc3OC)CC2)CC1` [Example 42], which IC50 [1] is on record?
Answer: The IC50 was 6.4 nM.

Question: With `COc1cc(N)c(Cl)cc1C(=O)NC1CCN(CC2CCN(C(=O)NCc3ccccc3)CC2)CC1` [Example 47] as the compound, how does the IC50 [1] read?
Answer: The IC50 was 1.6 nM.

Question: Which IC50 [1] does the source give for `COc1cc(N)c(Cl)cc1C(=O)NC1CCN(CC2CCN(C(=O)NC3CCCC3)CC2)CC1` [Example 49] here?
Answer: Its IC50 is 4.4 nM.

Question: Which IC50 [1] does the source give for `COc1cc(N)c(Cl)cc1C(=O)NC1CCN(CC2CCN(C(=O)NC3CCCCCC3)CC2)CC1` [Example 51] here?
Answer: Its IC50 is 1.9 nM.

Question: For `COc1cc(N)c(Cl)cc1C(=O)NC1CCN(CC2CCN(C(N)=O)CC2)CC1` [Example 53, 4-amino-N-[1-(1-carbamoyl-4-piperidinylmethyl)-4-piperidinyl]-5-chloro-2-methoxybenzamide], which IC50 [1] is on record?
Answer: Its IC50 is 9.8 nM.

Question: `COc1ccc(C(=O)N2CCC(CN3CCC(NC(=O)c4cc(Cl)c(N)cc4OC)CC3)CC2)cc1` [Example 60] was tested. Which IC50 [1] did it give?
Answer: The IC50 was 3.9 nM.

Question: With `COc1cc(N)c(Cl)cc1C(=O)NC1CCN(CC2CCN(C(=O)c3ccc(C)cc3)CC2)CC1` [Example 61] as the compound, how does the IC50 [1] read?
Answer: The IC50 was 4.6 nM.

Question: For `COc1cc(N)c(Cl)cc1C(=O)NC1CCN(CC2CCN(C(=O)c3cc(Cl)c(N)cc3OC)CC2)CC1` [Example 62], which IC50 [1] is on record?
Answer: The IC50 was 1.4 nM.

Question: How did the IC50 [1] turn out when `COCC(=O)N1CCC(CN2CCC(NC(=O)c3cc(Cl)c(N)cc3OC)CC2)CC1` [Example 63] was run?
Answer: The IC50 was 20.7 nM.

Question: `COCCC(=O)N1CCC(CN2CCC(NC(=O)c3cc(Cl)c(N)cc3OC)CC2)CC1` [Example 64] was tested. Which “Effect (evacuation)” value [2] did it give?
Answer: Its value is “+”.

Question: Which IC50 [1] does the source give for `COC(=O)CCCC(=O)N1CCC(CN2CCC(NC(=O)c3cc(Cl)c(N)cc3OC)CC2)CC1` [Example 69] here?
Answer: Its IC50 is 18 nM.

Question: With `COc1cc(N)c(Cl)cc1C(=O)NC1CCN(CC2CCN(C(=O)c3ccccc3)CC2)CC1` [Example 72, 4-amino-N-[1-(1-benzoyl-4-piperidinylmethyl)-4-piperidinyl]-5-chloro-2-methoxybenzamide] as the compound, how does the IC50 [1] read?
Answer: The IC50 was 6.8 nM.

Question: Which IC50 [1] does the source give for `COc1cc(N)c(Cl)cc1C(=O)NC1CCN(CC2CCN(C(=O)c3ccc(Cl)cc3)CC2)CC1` [Example 73] here?
Answer: Its IC50 is 4.2 nM.

Question: For `COc1cc(N)c(Cl)cc1C(=O)NC1CCN(CC2CCN(C(=O)c3cc(OC)c(OC)c(OC)c3)CC2)CC1` [Example 74], which IC50 [1] is on record?
Answer: The IC50 was 9 nM.

Question: Which “Effect (evacuation)” value [2] does the source give for `COc1cc(N)c(Cl)cc1C(=O)NC1CCN(CC2CCN(C(C)=O)CC2)CC1` [Example 75] here?
Answer: The value was “++”.

Question: `COC(=O)N1CCC(CN2CCC(NC(=O)c3cc(Cl)c(N)cc3OC)CC2)CC1` [Example 76] was tested. Which “Effect (evacuation)” value [2] did it give?
Answer: The value was “++”.

Question: With `CCOC(=O)N1CCC(CN2CCC(NC(=O)c3cc(Cl)c(N)cc3OC)CC2)CC1` [Example 77] as the compound, how does the “Effect (evacuation)” value [2] read?
Answer: Its value is “++”.

Question: Which “Effect (evacuation)” value [2] does the source give for `COc1cc(N)c(Cl)cc1C(=O)NC1CCN(CC2CCN(C=O)CC2)CC1` [Example 79, 4-amino-5-chloro-N-[1-(1-formyl-4-piperidinylmethyl) -4-piperidinyl]-2-methoxybenzamide] here?
Answer: The value was “+”.

Question: Which IC50 [1] does the source give for `COc1cc(N)c(Cl)cc1C(=O)NC1CCN(CC2CCN(C(C)C(C)=O)CC2)CC1` (centres unmarked) [Example 84, 4-amino-N-[1-[1-(2-butanon-3-yl)-4-piperidinylmethyl]-4-piperidinyl]-5-chloro-2-methoxybenzamide] here?
Answer: Its IC50 is 14.2 nM.

Question: For `COc1cc(N)c(Cl)cc1C(=O)NC1CCN(CC2CCN(CC(C)=O)CC2)CC1` [Example 85], which IC50 [1] is on record?
Answer: Its IC50 is 18.2 nM.

Question: With `COc1cc(N)c(Cl)cc1C(=O)NC1CCN(CC2CCN(CC(=O)C(C)(C)C)CC2)CC1` [Example 87] as the compound, how does the IC50 [1] read?
Answer: Its IC50 is 11.9 nM.

Question: How did the IC50 [1] turn out when `COc1cc(N)c(Cl)cc1C(=O)NC1CCN(CC2CCN(CCCC(C)=O)CC2)CC1` [Example 88] was run?
Answer: Its IC50 is 7.2 nM.

Question: Which IC50 [1] does the source give for `CCC(=O)CCN1CCC(CN2CCC(NC(=O)c3cc(Cl)c(N)cc3OC)CC2)CC1` [Example 89] here?
Answer: The IC50 was 6.5 nM.

Question: For `CCOC(=O)CN1CCC(CN2CCC(NC(=O)c3cc(Cl)c(N)cc3OC)CC2)CC1` [Example 90], which “Effect (evacuation)” value [2] is on record?
Answer: The value was “+”.

Question: With `CCOC(=O)CCCN1CCC(CN2CCC(NC(=O)c3cc(Cl)c(N)cc3OC)CC2)CC1` [Example 92] as the compound, how does the IC50 [1] read?
Answer: The IC50 was 4.1 nM.

Question: `CCCCC(C(=O)OCC)N1CCC(CN2CCC(NC(=O)c3cc(Cl)c(N)cc3OC)CC2)CC1` (centres unmarked) [Example 98] was tested. Which IC50 [1] did it give?
Answer: Its IC50 is 12.5 nM.

Question: `CCC(=O)CN1CCC(CN2CCC(NC(=O)c3cc(Cl)c(N)c4c3OCC4)CC2)CC1` [Example 99, 4-amino-N-[1-[1-(2-butanon-1-yl)-4-piperidinylmethyl]-4-piperidinyl]-5-chloro-2,3-dihydrobenzo[b]furan-7-carboxamide] was tested. Which IC50 [1] did it give?
Answer: Its IC50 is 3.9 nM.

Question: With `CCOC(=O)CCCN1CCC(CN2CCC(NC(=O)c3cc(Cl)c(N)c4c3OCC4)CC2)CC1` [Example 100, 4-amino-5-chloro-N-[1-[1-(3-ethoxycarbonylpropyl)-4-piperidinylmethyl]-4-piperidinyl]-2,3-dihydrobenzo[b]furan-7-carboxamide] as the compound, how does the IC50 [1] read?
Answer: Its IC50 is 1 nM.
